Experimental data: US20220241308A1, “NEURONAL FUNCTION MODULATING AGENT” (University of Tsukuba, priority 2019, published 2022)

Test system: SH-SY5Y cells
Experiment: Cell survival experiment (MTT), cell death induced by amyloid β protein
Assay type: cell-based
Conditions: compound 12.56 μM, 72 h, compared to “Aβ”
Method: Each well of a 96-well plate (BD Biocoat) was seeded with SH-SY5Y cells (model of neuronal cells, ATCC) at a concentration of 2×10^5 cells/mL (100 μL/well) and the cells were cultured at 37° C. and 5% CO2 for 24 h. Culture medium used was F12/DMEM (Gibco) supplemented with 1% non-essential amino acids (Gibco), 15% FBS (Bio West), and 1% penicillin/streptomycin (Lonza).
After 24 h, the culture medium was completely removed with an aspirator, 100 μL of culture medium Opti-MEM (Gibco) was added to each well, and the cells were cultured at 37° C. and 5% CO2 for 24 h. […]
Absorbance at 570 nm was measured on a microplate reader (Sumitomo Dainippon Pharma) to measure the MTT formazan production to calculate % relative cell survival (designated as “Control” in FIG. 1).
24 h after seeding a 96-well plate (BD Biocoat) with SH-SY5Y cells, the culture medium was completely removed with an aspirator, amyloid β protein (Beta-Amyloid 1-42, AnaSpec) was mixed with Opti-MEM (Gibco) so that the final concentration was 15 μM, 100 μL of the mixture was added to each well, and the cells were cultured at 37° C. and 5% CO2 for 72 h to induce cell death. Except for performing the procedure described above, the MTT formazan production was measured as described above to calculate % relative cell survival (designated as “Aβ” in FIG. 1). […]

With `COc1cc(-c2[o+]c3cc(O)cc(OC4OC(CO)C(O)C(O)C4O)c3cc2OC2OC(CO)C(O)C(O)C2O)cc(OC)c1O` (stereo not shown) [M3,5G, Malvidin-3,5-diglucoside chloride] the “% relative cell survival” value was “significantly high”.
